Source: patent publication US6235769A, “Methods of preventing and treating neurological disorders with compounds that modulate the function of the C-RET receptor protein tyrosine kinase” (Sugen, Inc., priority 1998, dated 2001)

Legend:
Type in all cases: cell-based
FLK-1 receptor = test: FLK-1 ELISA, catalytic activity of the FLK-1 receptor in FLK-1/NIH3T3 cells; conditions: concentration that yielded a two-hundred percent increase in catalytic activity in the FLK-1 ELISA
Method: An enzyme linked immunosorbant assay (ELISA) can be conducted to measure the catalytic activity of the FLK-1 receptor and more specifically, the inhibition or activation of indolinone compounds of the catalytic activity of the FLK-1 receptor. The following assay was conducted to measure catalytic activity of the FLK-1 receptor in FLK-l/NIH3T3 cells.
One skilled in the art can adapt such a procedure to other receptor tyrosine protein kinases to identify compounds that modulate the function of the receptor.
This type of assay can be developed for nearly any RPTK using well known techniques utilized by persons of ordinary skill in the art. The FLK-1/NIH3T3 cell lines are also created by techniques well known to those skilled in the art. The NIH3T3 cells were stably transfected with gene constructs containing the FLK-1 gene. The nucleic acid vectors used for this type of procedure are commonly and commercially available to those skilled in the art. The methods of cloning the genes of interest into these nucleic acid vectors and the methods of transfecting these nucleic acid constructs into cells are also well known to those skilled in the art. Sambrook, Fritsch, Maniatis, Molecular Cloning, A Laboratory Manual 2nd Ed., Cold Spring Harbor Laboratory Press, 1989.
1. Coat Corning 96-well ELISA plates with 1.0 μg per well Cappel Anti-rabbit IgG antibody in 0.1 M Na2 CO3 pH 9.6. Bring final volume to 150 μL per well. Coat plates overnight at 4° C. Plates can be kept up to two weeks when stored at 4° C.
2. Grow cells in Growth media (DMEM, supplemental with 2.0 mM L-Glutamine, 10% FBS) in suitable culture dishes until confluent at 37° C., 5% CO2.
3. Harvest cells by trypsinization and seed in Corning 25850 polystyrene 96-well roundbottom cell plates, 25.000 cells/well in 200 μL of growth media.
4. Grow cells at least one day at 37° C., 5% CO2.
5. Wash cells with D-PBS 1×.
6. Add 200 μL/well of starvation media (DMEM, 2.0 mM 1-Glutamine, 0.1% FBS). Incubate overnight at 37° C., 5% CO2.
7. Dilute Compounds/Extracts 1:20 in polypropylene 96 well plates using starvation media. Dilute dimethylsulfoxide 1:20 for use in control wells.
8. Remove starvation media from 96 well cell culture plates and add 162 μL of fresh starvation media to each well.
9. Add 18 μL of 1:20 diluted Compound/Extract dilution (from step 7) to each well plus the 1:20 dimethylsulfoxide dilution to the control wells (+/-VEGF), for a final dilution of 1:200 after cell stimulation. Final dimethylsulfoxide is 0.5%. Incubate the plate at 37° C., 5% CO2 for two hours.
10. Remove unbound antibody from ELISA plates by inverting plate to remove liquid. Wash 3 times with TBSW+0.5% ethanolamine, pH 7.0. Pat the plate on a paper towel to remove excess liquid and bubbles.
11. Block plates with TBSW+0.5% Ethanolamine, pH 7.0, 150 μL per well. Incubate plate thirty minutes while shaking on a microtiter plate shaker.
12. Wash plate 3 times as described in step 10.
13. Add 0.5 μg/well affinity purified […] polyclonal rabbit antiserum. Bring final volume to 150 μL/well with TBSW+0.5% ethanolamine pH 7.0. Incubate plate for thirty minutes while shaking.
14. Add 180 μL starvation medium to the cells and stimulate cells with 20 μL/well 10.0 mM sodium ortho vanadate and 500 ng/mL VEGF (resulting in a final concentration of 1.0 mM sodium ortho vanadate and 50 ng/mL VEGF per well) for eight minutes at 37° C., 5% CO2. Negative control wells receive only starvation medium.
15. After eight minutes, media should be removed from the cells and washed one time with 200 μL/well PBS.
16. Lyse cells in 150 μL/well HNTG while shaking at room temperature for five minutes. HNTG formulation includes sodium ortho vanadate, sodium pyro phosphate and EDTA.
17. Wash ELISA plate three times as described in step 10.
18. Transfer cell lysates from the cell plate to ELISA plate and incubate while shaking for two hours. To transfer cell lysate pipette up and down while scrapping the wells.
19. […]

chicken trkA receptor = test: Receptor phosphorylation in cells expressing both rat and chicken trkA, chick receptor; conditions: NGF or CTA
Method: (§1) The assumption was tested by expressing both rat and chicken trkA receptors in the same cell and activating them with either neurotrophic growth factor (NGF), which binds both receptors, or with the CTA antibody, which binds only the chick receptor. […] The effects of the CTA antibody preparation were therefore not attributable to activation of endogenous trkA receptors.
(§2) The conditions for immunoprecipitation and immunoblotting used in the experiments were described previously (Clary et al., 1994, Mol. Biol. Cell 5: 549-563) with modifications as follows. Immunoblots were performed in Tris-buffered saline containing 0.1% Triton X-100, and filter blocking and antibody incubations were performed in the same buffer with 1% BSA. In other experiments, anti-phosphotyrosine detection was performed with biotinylated-4G10 monoclonal antibody followed by a peroxidase avidin-biotin complex. Other antibodies were detected with peroxidase coupled anti-mouse IgG, anti-rabbit IgG, or protein A as indicated. All peroxidase conjugates were detected using a chemiluminescence protocol (Pierce Chemical Co. Rockford, Ill.).

rat trkA receptor = test: Receptor phosphorylation in cells expressing both rat and chicken trkA, rat receptor
Method: as §1, §2

[1] = test system: c-ret chimera (human C-RET transmembrane and cytoplasmic domains fused to chicken TRKA extracellular domain); test: Chimeric receptor activation in infected C6 glioma cells (anti-phosphotyrosine immunoblot), c-ret chimera; conditions: 50 ng/mL NGF, five minutes
Method: (§3) DNA constructs were generated, which encoded the transmembrane and cytoplasmic domains from human MCK-10, C-RET, mouse SEK, and rat TRKA fused to the chicken TRKA extracellular domain. These chimeric receptor constructs were then inserted into the adenovirus transfer vector, and recombinant viruses were generated and purified. Rat C6 glioma cells were infected with the recombinant viruses, and the resulting chimeric receptors were analyzed via immunoblot analysis.
(§4) The ability to activate the chimeras was evaluated by incubating the infected C6 monolayers with 50 ng/mL NGF for five minutes. The receptors were immunoprecipitated with the CTA antibody, immunoblotted, and probed either with the anti-phosphotyrosine antibody 4G10 or with the CTA antibody preparation.
(§5) C6 glioma cells were grown in Ham's Flo medium containing 10% fetal calf serum; for receptor activation experiments the medium was changed to 0.5% fetal calf serum 12 hours prior to stimulation.

[2] = test system: sek chimera (mouse SEK transmembrane and cytoplasmic domains fused to chicken TRKA extracellular domain); test: Chimeric receptor activation in infected C6 glioma cells (anti-phosphotyrosine immunoblot), sek chimera; conditions: 50 ng/mL NGF, five minutes
Method: as §3, §4, §5

[3] = test system: MCK-10 chimera (human MCK-10 transmembrane and cytoplasmic domains fused to chicken TRKA extracellular domain); test: Chimeric receptor activation in infected C6 glioma cells (anti-phosphotyrosine immunoblot), MCK-10 chimera; conditions: 50 ng/mL NGF, before or after incubation
Method: as §3, §4, §5

| Compound | EC200 (FLK-1 receptor) [µM] | further results |
| --- | --- | --- |
| CC(C)c1cc(C(C)C)c(/C=C2\C(=O)Nc3ccc(C(=O)O)cc32)[nH]1 [Indolinone 1] | 10 |  |
| CCc1cc(CC)c(/C=C2\C(=O)Nc3ccc(C(=O)O)cc32)[nH]1 [Indolinone 2] | 2.8 |  |
| Cc1cc(C)c(/C=C2\C(=O)Nc3ccc(CCC(=O)O)cc32)[nH]1 [Indolinone 3] | 32 |  |
| Cc1cc(C)c(/C=C2\C(=O)Nc3ccc(C(=O)O)cc32)[nH]1 [Indolinone 4] | 2.8 |  |
| Cc1ccc(/C=C2\C(=O)Nc3ccc(CCC(=O)O)cc32)s1 [Indolinone 5] | > 100 |  |
| Cc1ccc(/C=C2\C(=O)Nc3ccc(C(=O)O)cc32)s1 [Indolinone 6] | 46 |  |
| NGF: nerve growth factor, which binds to the extracellular region of the TRK receptor |  | phosphorylation of the chick receptor (chicken trkA receptor): became phosphorylated; activation of the rat receptor (rat trkA receptor): activation of the rat receptor was detected only after NGF addition; activation of c-ret chimera [1]: NGF-dependent activation of the c-ret and sek chimeras was detected; activation of sek chimera [2]: NGF-dependent activation of the c-ret and sek chimeras was detected; phosphotyrosine of MCK-10 chimeric protein [3]: Phosphotyrosine was not detected |
